The term Ki denotes the equilibrium dissociation constant of an inhibitor or competing ligand from its target.

The test deals with recombinant Mcl-1 (residues 172-327) (Homo sapiens (Human), UniProt Q07820). In words: Fluorescence polarization anisotropy competition assay (FITC-Bak or FITC-Bim BH3 peptide) with Mcl-1. Format: binding. As to conditions: Table 2; Ki bins given in nM; FITC-Bak or FITC-Bim peptide competition; Ki converted from IC50; read-out: Ki for Inhibition of Mcl-1.

The structures appear in SMILES notation.

recombinant Mcl-1 (residues 172-327), sequence (Q07820 172-327): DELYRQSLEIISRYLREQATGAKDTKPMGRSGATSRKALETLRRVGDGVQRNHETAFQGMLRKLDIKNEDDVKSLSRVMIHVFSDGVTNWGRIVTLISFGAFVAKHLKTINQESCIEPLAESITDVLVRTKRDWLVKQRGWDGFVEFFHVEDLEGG

`Cc1cc(OCCCc2c3n(c4c(-c5c(C)nn(C)c5C)cccc24)CCCN(Cc2cc(C(=O)O)cc([N+](=O)[O-])c2)C3=O)cc(C)c1Cl` [I-86, 3-((11-(3-(4-chloro-3,5-dimethylphenoxy)propyl)-1-oxo-7-(1,3,5-trimethyl-1H-pyrazol-4-yl)-4,5-dihydro-1H-[1,4]diazepino[1,2-a]indol-2(3H)-yl)methyl)-5-nitrobenzoic acid]: the inhibition constant (Ki) was under 50 nM.

With `Cc1cc(OCCCc2c3n(c4c(-c5c(C)nn(C)c5C)cccc24)CCCN(Cc2ccc(-c4nnn[nH]4)cc2)C3=O)cc(C)c1Cl` [I-88, 2-(4-(1H-tetrazol-5-yl)benzyl)-11-(3-(4-chloro-3,5-dimethylphenoxy)propyl)-7-(1,3,5-trimethyl-1H-pyrazol-4-yl)-2,3,4,5-tetrahydro-1H-[1,4]diazepino[1,2-a]indol-1-one], the Ki is under 50 nM.

Regarding `Cc1cc(OCCCc2c(C(=O)NCc3cccn3CC(=O)O)[nH]c3c(-c4c(C)nn(C)c4C)cccc23)cc(C)c1Cl` [I-89, 2-(2-((3-(3-(4-chloro-3,5-dimethylphenoxy)propyl)-7-(1,3,5-trimethyl-1H-pyrazol-4-yl)-1H-indole-2-carboxamido)methyl)-1H-pyrrol-1-yl)acetic acid], the Ki was under 50 nM.

Turning to `Cc1cc(OCCCc2c(C(=O)Nc3ccc(C(=O)O)c(N4CCN(C)CC4)c3)[nH]c3c(-c4c(C)nn(C)c4C)c(Cl)ccc23)cc(C)c1Cl` [I-90, 4-(6-chloro-3-(3-(4-chloro-3,5-dimethylphenoxy)propyl)-7-(1,3,5-trimethyl-1H-pyrazol-4-yl)-1H-indole-2-carboxamido)-2-(4-methylpiperazin-1-yl)benzoic acid], the Ki was under 50 nM.

Regarding `Cc1cc(OCCCc2c(C(=O)Nc3ccc(C(=O)O)c(N4CCOCC4)c3)[nH]c3c(-c4c(C)nn(C)c4C)c(Cl)ccc23)cc(C)c1Cl` [I-91, 4-(6-chloro-3-(3-(4-chloro-3,5-dimethylphenoxy)propyl)-7-(1,3,5-trimethyl-1H-pyrazol-4-yl)-1H-indole-2-carboxamido)-2-morpholinobenzoic acid], the Ki was under 50 nM.

For the molecule `Cc1cc(OCCCc2c(C(=O)Nc3ccc(C(=O)O)c(N(C)CCN(C)C)c3)[nH]c3c(-c4c(C)nn(C)c4C)c(Cl)ccc23)cc(C)c1Cl` [I-92, 4-(6-chloro-3-(3-(4-chloro-3,5-dimethylphenoxy)propyl)-7-(1,3,5-trimethyl-1H-pyrazol-4-yl)-1H-indole-2-carboxamido)-2-((2-(dimethylamino)ethyl)(methyl)amino)benzoic acid], the Ki is under 50 nM.

In the case of `Cc1cc(OCCCc2c3n(c4c(-c5c(C)nn(C)c5C)c(Cl)ccc24)CCCN(c2ccc(C(=O)O)c(C(F)(F)F)c2)C3=O)cc(C)c1Cl` [I-93, 4-(8-chloro-11-(3-(4-chloro-3,5-dimethylphenoxy)propyl)-1-oxo-7-(1,3,5-trimethyl-1H-pyrazol-4-yl)-4,5-dihydro-1H-[1,4]diazepino[1,2-a]indol-2(3H)-yl)-2-(trifluoromethyl)benzoic acid], the Ki is under 50 nM.

For `Cc1cc(OCCCc2c3n(c4c(-c5c(C)nn(C)c5C)c(Cl)ccc24)CCCN(c2ccc(C(=O)O)c(F)c2)C3=O)cc(C)c1Cl` [I-94, 4-(8-chloro-11-(3-(4-chloro-3,5-dimethylphenoxy)propyl)-1-oxo-7-(1,3,5-trimethyl-1H-pyrazol-4-yl)-4,5-dihydro-1H-[1,4]diazepino[1,2-a]indol-2(3H)-yl)-2-fluorobenzoic acid], the Ki is under 50 nM.

`Cc1cc(OCCCc2c3n(c4c(-c5c(C)nn(C)c5C)c(Cl)ccc24)CCCN(c2ccc(C(=O)O)cc2F)C3=O)cc(C)c1Cl` [I-95, 4-(8-chloro-11-(3-(4-chloro-3,5-dimethylphenoxy)propyl)-1-oxo-7-(1,3,5-trimethyl-1H-pyrazol-4-yl)-4,5-dihydro-1H-[1,4]diazepino[1,2-a]indol-2(3H)-yl)-3-fluorobenzoic acid]: the Ki is under 50 nM.

With `Cc1cc(OCCCc2c3n(c4c(-c5c(C)nn(C)c5C)c(Cl)ccc24)CCCN(c2cccc(C(=O)O)c2C)C3=O)cc(C)c1Cl` [I-96, 3-(8-chloro-11-(3-(4-chloro-3,5-dimethylphenoxy)propyl)-1-oxo-7-(1,3,5-trimethyl-1H-pyrazol-4-yl)-4,5-dihydro-1H-[1,4]diazepino[1,2-a]indol-2(3H)-yl)-2-methylbenzoic acid], the Ki was under 50 nM.

For the molecule `Cc1cc(C(=O)O)ccc1N1CCCn2c(c(CCCOc3cc(C)c(Cl)c(C)c3)c3ccc(Cl)c(-c4c(C)nn(C)c4C)c32)C1=O` [I-97, 4-(8-chloro-11-(3-(4-chloro-3,5-dimethylphenoxy)propyl)-1-oxo-7-(1,3,5-trimethyl-1H-pyrazol-4-yl)-4,5-dihydro-1H-[1,4]diazepino[1,2-a]indol-2(3H)-yl)-3-methylbenzoic acid], the Ki was under 50 nM.

In the case of `Cc1ccc(N2CCCn3c(c(CCCOc4cc(C)c(Cl)c(C)c4)c4ccc(Cl)c(-c5c(C)nn(C)c5C)c43)C2=O)cc1C(=O)O` [I-98, 5-(8-chloro-11-(3-(4-chloro-3,5-dimethylphenoxy)propyl)-1-oxo-7-(1,3,5-trimethyl-1H-pyrazol-4-yl)-4,5-dihydro-1H-[1,4]diazepino[1,2-a]indol-2(3H)-yl)-2-methylbenzoic acid], the Ki was under 50 nM.

Consider `Cc1cc(N2CCCn3c(c(CCCOc4cc(C)c(Cl)c(C)c4)c4ccc(Cl)c(-c5c(C)nn(C)c5C)c43)C2=O)ccc1C(=O)O` [I-99, 4-(8-chloro-11-(3-(4-chloro-3,5-dimethylphenoxy)propyl)-1-oxo-7-(1,3,5-trimethyl-1H-pyrazol-4-yl)-4,5-dihydro-1H-[1,4]diazepino[1,2-a]indol-2(3H)-yl)-2-methylbenzoic acid], for which the Ki is under 50 nM.

Consider `Cc1ccc(C(=O)O)cc1N1CCCn2c(c(CCCOc3cc(C)c(Cl)c(C)c3)c3ccc(Cl)c(-c4c(C)nn(C)c4C)c32)C1=O` [I-100, 3-(8-chloro-11-(3-(4-chloro-3,5-dimethylphenoxy)propyl)-1-oxo-7-(1,3,5-trimethyl-1H-pyrazol-4-yl)-4,5-dihydro-1H-[1,4]diazepino[1,2-a]indol-2(3H)-yl)-4-methylbenzoic acid], for which the Ki was under 50 nM.

With `Cc1cc(OCCCc2c3n(c4c(-c5c(C)nn(C)c5C)c(Cl)ccc24)CCCN(c2cccc(OC(F)(F)F)c2)C3=O)cc(C)c1Cl` [I-101, 8-chloro-11-(3-(4-chloro-3,5-dimethylphenoxy)propyl)-2-(3-(trifluoromethoxy)phenyl)-7-(1,3,5-trimethyl-1H-pyrazol-4-yl)-2,3,4,5-tetrahydro-1H-[1,4]diazepino[1,2-a]indol-1-one], the Ki was 301 to 500 nM.

Consider `Cc1cc(OCCCc2c3n(c4c(-c5c(C)nn(C)c5C)c(Cl)ccc24)CCCN(Cc2ccc(C(=O)O)cn2)C3=O)cc(C)c1Cl` [I-102, 6-((8-chloro-11-(3-(4-chloro-3,5-dimethylphenoxy)propyl)-1-oxo-7-(1,3,5-trimethyl-1H-pyrazol-4-yl)-4,5-dihydro-1H-[1,4]diazepino[1,2-a]indol-2(3H)-yl)methyl)nicotinic acid], for which the Ki was under 50 nM.

For `Cc1cc(OCCCc2c3n(c4c(-c5c(C)nn(C)c5C)c(Cl)ccc24)CCCN(c2ccnc4c(C(=O)O)cccc24)C3=O)cc(C)c1Cl` [I-104, 4-(8-chloro-11-(3-(4-chloro-3,5-dimethylphenoxy)propyl)-1-oxo-7-(1,3,5-trimethyl-1H-pyrazol-4-yl)-4,5-dihydro-1H-[1,4]diazepino[1,2-a]indol-2(3H)-yl)quinoline-8-carboxylic acid], the Ki was under 50 nM.

Take `Cc1cc(OCCCc2c3n(c4c(-c5c(C)nn(C)c5C)c(Cl)ccc24)C[C@@H](C)NC3=O)cc(C)c1Cl` [I-109, (R)-7-chloro-10-(3-(4-chloro-3,5-dimethylphenoxy)propyl)-3-methyl-6-(1,3,5-trimethyl-1H-pyrazol-4-yl)-3,4-dihydropyrazino[1,2-a]indol-1(2H)-one]: the inhibitory constant (Ki) was under 50 nM.

On to `Cc1cc(OCCCc2c3n(c4c(-c5c(C)nn(C)c5C)c(Cl)ccc24)CCC(C)NC3=O)cc(C)c1Cl` (stereo not drawn) [I-114, 8-chloro-1-(3-(4-chloro-3,5-dimethylphenoxy)propyl)-3-methyl-7-(1,3,5-trimethyl-1H-pyrazol-4-yl)-2,3,4,5-tetrahydro-1H-[1,4]diazepino[1,2-a]indol-1-one], for which the Ki is under 50 nM.

Take `Cc1cc(OCCCc2c3n(c4c(-c5c(C)nn(C)c5C)c(Cl)ccc24)CC(C)CNC3=O)cc(C)c1Cl` (stereo not drawn) [I-115, 8-chloro-1-(3-(4-chloro-3,5-dimethylphenoxy)propyl)-4-methyl-7-(1,3,5-trimethyl-1H-pyrazol-4-yl)-2,3,4,5-tetrahydro-1H-[1,4]diazepino[1,2-a]indol-1-one]: the Ki was under 50 nM.

Regarding `Cc1cc(OCCCc2c3n(c4c(-c5c(C)nn(C)c5C)c(Cl)ccc24)C(C)CCNC3=O)cc(C)c1Cl` (stereo not drawn) [I-116, 8-chloro-1-(3-(4-chloro-3,5-dimethylphenoxy)propyl)-5-methyl-7-(1,3,5-trimethyl-1H-pyrazol-4-yl)-2,3,4,5-tetrahydro-1H-[1,4]diazepino[1,2-a]indol-1-one], the Ki was under 50 nM.

As for `Cc1cc(OCCCc2c3n(c4c(-c5c(C)nn(C)c5C)c(Cl)ccc24)CCNC3=O)cc(C)c1Cl` [I-117, 7-chloro-10-(3-(4-chloro-3,5-dimethylphenoxy)propyl)-6-(1,3,5-trimethyl-1H-pyrazol-4-yl)-3,4-dihydropyrazino[1,2-a]indol-1(2H)-one], the inhibition constant Ki was under 50 nM.

As for `Cc1cc(OCCCc2c3n(c4c(-c5c(C)nn(C)c5C)c(Cl)ccc24)CCCNC3=O)cc(C)c1Cl` [I-118, 8-chloro-11-(3-(4-chloro-3,5-dimethylphenoxy)propyl)-7-(1,3,5-trimethyl-1H-pyrazol-4-yl)-2,3,4,5-tetrahydro-1H-[1,4]diazepino[1,2-a]indol-1-one], the Ki was under 50 nM.

`Cc1cc(OCCCc2c3n(c4c(-c5c(C)nn(C)c5C)c(Cl)ccc24)C(C)[C@@H](C)NC3=O)cc(C)c1Cl` (stereo partly drawn) [I-119, (3R)-7-chloro-10-(3-(4-chloro-3,5-dimethylphenoxy)propyl)-3,4-dimethyl-6-(1,3,5-trimethyl-1H-pyrazol-4-yl)-3,4-dihydropyrazino[1,2-a]indol-1(2H)-one]: the Ki lay within 101 to 299 nM.
